Results on 7 molecules are retold here after patent US7608577B2, “Peptidyl ketones as inhibitors of DPIV” (OSI Pharmaceuticals, Inc., priority 2001, dated 2009).

Structures are written as SMILES. Where a name gives a salt, the structure may show the parent alone. Read-outs that look alike come from different tables or passages of the source. Some results are limits rather than exact numbers.

Test [1] addresses porcine DPIV (Sus scrofa, UniProt P22411). The test is described as follows: Determination of IC50 values against DPIV. Format: biochemical. As to conditions: Gly-Pro-pNA 0.4 mM, APN, 30° C. On the procedure: 100 μl inhibitor stock solution was mixed with 100 μl buffer (HEPES pH7.6) and 20 μl diluted porcine DPIV and preincubated at 30° C. Reaction was started by addition of a mixture of 50 μl substrate (Gly-Pro-pNA, final concentration 0.4 mM) and 2 μl APN stock solution. Formation of the product pNA was measured at 405 nm and 30° C. over 10 min using the HTS 7000Plus plate reader (Perkin Elmer) and slopes were calculated. The final inhibitor concentrations ranged between 1 mM and 30 nM. For calculation of IC50 GraFit 4.0.13 (Erithacus Software) was used.

In test [2] the target is T1, dipeptidyl peptidase IV from porcine kidney (Sus scrofa, UniProt P22411).
T1 construct: dipeptidyl peptidase IV from porcine kidney with a specific activity against glycylprolyl-4-nitroaniline of 37.5 U/mg; from tissue; host or cells: porcine kidney
The test is described as follows: Ki determination, DPIV inhibition (inhibitor released from prodrug by APN). It is filed as biochemical. As to conditions: for Ki: porcine kidney DPIV, substrate Gly-Pro-pNA, APN added to release inhibitor, HEPES pH7.6; for T1/2 (half-life, from enzyme activity versus reaction time): same assay as Ki, unstable competitive inhibitor. The procedure:
500 μl test compound in a concentration range of 1*10^−5 M-1*10^−11M were admixed with and 500 μl HEPES buffer (40 mM, pH7.6; ion strength=0.125) and 20 μl of diluted DPIV. Release of the inhibitor from the prodrug as well the monitoring reaction (DPIV-catalyzed hydrolysis of Gly-Pro-pNA) were started by addition of a mixture of 10 μl of APN stock solution (4.9 mg/ml, Sigma, Taufkirchen, Germany) with 250 μl of the substrate (Gly-Pro-pNA, 0.05-4 mM). Development of yellow color due to 4-nitroaniline release were monitored at λ=405 nm for up to 180 min using UV1 Spectrometer (ThermoSpectronic).
The Ki-values were calculated by fitting the first derivative of the time-progress curves using Graphit (v.4.0.13, Erithacus Software, Ltd, UK) and an equation for an unstable competitive inhibitor.
The half-life (t1/2) was calculated by plotting the enzyme activity versus reaction time.

Test [3] relates to Wistar rats. The test can be described thus: Glucose tolerance (OGTT) in Wistar rats under identical experimental conditions. It is filed as in vivo. As to conditions: 100 mg/kg b.w. oral.

T1 sequence (P22411 whole entry): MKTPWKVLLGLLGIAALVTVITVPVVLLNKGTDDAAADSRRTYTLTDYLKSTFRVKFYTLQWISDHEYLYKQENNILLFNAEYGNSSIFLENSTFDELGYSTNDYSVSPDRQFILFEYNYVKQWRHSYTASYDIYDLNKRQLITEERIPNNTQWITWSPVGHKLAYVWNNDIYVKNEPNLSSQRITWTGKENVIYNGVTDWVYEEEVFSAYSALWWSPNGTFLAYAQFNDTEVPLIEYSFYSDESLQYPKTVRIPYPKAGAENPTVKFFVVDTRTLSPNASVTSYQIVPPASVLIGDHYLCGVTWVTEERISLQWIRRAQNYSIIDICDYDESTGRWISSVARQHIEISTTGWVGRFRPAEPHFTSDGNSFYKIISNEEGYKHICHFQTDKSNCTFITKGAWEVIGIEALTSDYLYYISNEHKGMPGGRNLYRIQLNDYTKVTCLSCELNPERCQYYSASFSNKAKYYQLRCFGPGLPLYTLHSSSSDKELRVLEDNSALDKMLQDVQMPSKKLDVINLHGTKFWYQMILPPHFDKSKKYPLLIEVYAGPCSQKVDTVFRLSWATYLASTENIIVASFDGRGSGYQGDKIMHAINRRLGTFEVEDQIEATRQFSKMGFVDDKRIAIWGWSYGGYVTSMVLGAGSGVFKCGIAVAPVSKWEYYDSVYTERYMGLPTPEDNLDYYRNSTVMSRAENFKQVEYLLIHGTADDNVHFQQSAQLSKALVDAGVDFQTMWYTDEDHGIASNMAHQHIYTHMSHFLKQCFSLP
Chain of porcine DPIV (P22411 whole entry): as above

Broadly, the IC50 is the point on the concentration scale where inhibition reaches its midpoint. The term Ki denotes the dissociation constant of the complex between target and ligand, obtained from inhibition or displacement. Consider `CC(C)[C@H](NC(=O)[C@H](C)N)C(=O)N1CCC[C@H]1C(=O)c1nccs1.O=C(O)C(F)(F)F` [H-Ala-Val-Pro-CO-Thiazole*TFA, 2-[([1,3]-Thiazol-2-yl)carbonyl]-1-N-[{(L)-Alanyl}-(L)-Valinyl]-(2S)-pyrrolidine trifluoroacetate], for which the IC50 entry in test [1] (HEPES pH7.6) is reported as “no inhibition”. The Ki in test [2] (read-out: Ki) stood at 0.0332 µM. Besides, the “T1/2 (half-life, from enzyme activity versus reaction time)” value in test [2] is listed as 15.1 min.
As for `CC(C)[C@H](NC(=O)[C@H](C)N)C(=O)N1CCC[C@H]1C(=O)c1nc2ccccc2s1.O=C(O)C(F)(F)F` [H-Ala-Val-Pro-CO-Benzothiazole*TFA, 2-[(Benzothiazol-2-yl)carbonyl]-1-N-[{(L)-Alanyl}-(L)-Valinyl]-(2S)-pyrrolidine trifluoroacetate], the Ki in test [2] (read-out: Ki) was determined as 0.0373 µM. The “T1/2 (half-life, from enzyme activity versus reaction time)” value in test [2] is listed as 17.0 min.
In the same order, the values of `C[C@H](N)C(=O)NCC(=O)N1CCC[C@H]1C(=O)c1nc2ccccc2s1.O=C(O)C(F)(F)F` [H-Ala-Gly-Pro-CO-Benzothiazole*TFA, 2-[(Benzothiazol-2-yl)carbonyl]-1-N-[{(L)-Alanyl}-Glycyl]-(2S)-pyrrolidine trifluoroacetate] are 0.107 µM and 5.1 min.
`Br.CC(=O)[C@@H]1CCCN1C(=O)[C@@H](NC(=O)[C@@H]1CCCN1C(=O)[C@@H](N)C(C)C)C(C)C` [H-Val-Pro-Val-Pro-Me*HBr, 2-Methylcarbonyl-1-N-[(L)-Valinyl-(L)-Prolyl-(L)-Valinyl]-(2S)-pyrrolidine hydrobromide]: the AUC test compound in test [3] was found to be 66.4 mmol·min/L. The molecule also had an Improvement in test [3] (vs AUC control) of 44.1%.
As to `CC(C)[C@H](NC(=O)[C@H](C)N)C(=O)N1CCC[C@H]1C(=O)c1ccccn1` [H-Ala Val-Pro-CO-(2-Pyridinyl)*TFA, 2-[(Pyridin-2-yl)carbonyl]-1-N-[{(L)-Alanyl}-(L)-Valinyl]-(2S)-pyrrolidine trifluoroacetate], the IC50 in test [1] (HEPES pH7.6, read-out: IC50) was found to be 1100 µM.
Turning to `CC(C)[C@H](NC(=O)[C@H](C)N)C(=O)N1CCC[C@H]1C(=O)CSCc1c(Cl)cccc1Cl` [2-{[(2,6-Dichlorobenzyl)thiomethyl]carbonyl}-1-N-[{(L)-Alanyl}-(L)-Valinyl]-(2S)-pyrrolidine], the IC50 in test [1] (HEPES pH7.6, read-out: IC50) came out at 79.7 µM. The Ki in test [2] (read-out: Ki) was under 0.1 µM.
Take `Br.CC(C)[C@H](NC(=O)CN)C(=O)N1CCC[C@H]1C(=O)COC(=O)c1ccccc1` [H-Gly-Val-Pro-CO—CH2O—CO—Ph*HBr, 2-[(Benzoyloxy-methyl)carbonyl]-1-N-[Glycyl-(L)-Valinyl]-(2S)-pyrrolidine hydrobromide]: the IC50 in test [1] (HEPES pH7.6, read-out: IC50) was found to be 4.94 µM. For the same molecule, in test [2], the Ki entry is “no inhibition”.
